Data taken from US20220110331A1, “COMPOSITION FOR PROMOTING GROWTH OF EFFECTIVE MICROORGANISM AND CONTROLLING PLANT DISEASE USING PREBIOTICS, AND USE THEREOF” (priority 2018, published 2022).

What was measured:
[1] = tested on: Streptomyces badius SP6C4 strain; assay: Amino acid preference of effective microorganism on Biolog PM3B nitrogen source plate (redox dye colour); type: cell-based; conditions: 72 hours at 28° C., then dye and culture at 37° C. for 24 and 48 hours, naked eye
Method: Single colony of Streptomyces badius SP6C4 strain with deposit number of KCCM11703P was inoculated by streaking on MS medium (containing 20 g of mannitol, 20 g of soya, and 20 g of agar in 1 liter distilled water) and cultured for 7 days at 28° C. […] Thus-completed spore stock was diluted in sterile water, and, after adjusting the concentration to OD595 of 0.2±0.02, carrageenan stock (0.2% carrageenan and 50 mL distilled water) was prepared. The spore stock (1.5 mL) was admixed with 0.2% carrageenan stock (13.5 mL) and then the mixture (100 μl) was aliquoted onto a biolog plate (PM3B MICROPLATE™ Nitrogen Sources) followed by sealing the plate with a transparent film sheet. After 72 hours at 28° C., Redox dye mix MA (Biolog, Hayward, Calif.) was aliquoted to each well (10 μl per well) and sealed with a transparent film and a wrap to block the incorporation of CO2 from outside. Culture was carried out at 37° C. for 24 hours and 48 hours, respectively. […] Determination was made based on the assumption that stronger purple color corresponds to higher growth of the microorganism.

gray mold = assay: Strawberry field test, incidence rate of gray mold; type: in vivo, Botrytis cinerea; conditions: foliar application of 2% amino acid; for incidence rate of gray mold: 8 treatments with interval of 2 weeks, non-treatment group 35%; for incidence rate of gray mold (in words): 8 treatments, decreased in order of glutamic acid, proline, tryptophan
Method: (§1) Specifically, the test was carried out with an interval of 2 weeks during the cultivation period of strawberry. Length of 5M was set as a single section and foliar application was performed for three sections. For each section, 100 strawberries were randomly selected and incidence rate of the disease was determined. As a treatment process, each amino acid was diluted to concentration of 2% in 15 liter distilled water, and the mixture (5 liter) was applied to each section. The treatment was carried out 8 times with an interval of 2 weeks.

bloom blight = assay: Strawberry field test, incidence rate of bloom blight; type: in vivo, Cladosporium cladosporioides; conditions: foliar application of 2% amino acid, 8 treatments with interval of 2 weeks, non-treatment group up to 50%
Method: as §1

[2] = tested on: Streptomyces badius SP6C4 strain; assay: Maintenance of density of effective microorganism on strawberry flowers after amino acid treatment (qPCR of lanM gene); type: in vivo; conditions: continuously maintained except the first treatment out of 8 treatments
Method: To determine whether or not the density of effective microorganism is maintained even after a treatment of the amino acids, three strawberry flowers were collected, 3 times repeatedly, in each treatment period during which the test of inhibiting gray mold by the strawberry field test of Example 3 is carried out. After transfer to the lab under cold storage, 3 flowers were added to 30 mL of 1×PBS buffer and subjected to an ultrasonication treatment for 10 minutes. 3 mL of the supernatant was centrifuged for 10 minutes at a rate of 13,000 rpm, 1 mL of the resulting supernatant was discarded, and the pellet was dissolved in the remaining supernatant (2 mL). 500 μl of the mixture was admixed with 500 μl CTAB buffer followed by DNA purification. Each DNA was subjected to qPCR (quantitative polymerase chain reaction) by using lanM gene specific primers of Streptomyces badius SP6C4 strain (forward direction: 5′-gtacggatctgcaccacga-3′ (SEQ ID NO: 1), reverse direction: 5′-[…]-3′ (SEQ ID NO: 2)).

Fusarium oxysporum [3] = assay: Wilt disease control after treating underground part of tomato plant with glutamic acid; type: in vivo; conditions: 2% glutamic acid solution 20 mL applied 2 times to tomato plant
Method: To a tomato plant grown to have aboveground part of 8 to 10 cm, 2% glutamic acid solution was applied 2 times, in an amount of 20 mL with an interval of 5 days. […] A wound was created, by using a 5 mL tip, on the underground part of plant which has been treated twice with glutamic acid for 10 days, and then the spore suspension (10 mL) was applied to a pot with diameter of 9 cm. The plant inoculated with the pathogen was transferred to a plant growth chamber which is set at 28° C. for 16 hours of light period and 25° C. for 8 hours of dark period. Then, the incidence rate of disease was determined with an interval of 1 week. As a control, a group treated only with the pathogen and a plant not treated with any were tested, each repeated 5 times.

[4] = tested on: Streptomyces badius SP6C4 strain; assay: Growth promotion of effective microorganism by amino acids (OD600); type: cell-based; conditions: fifth day of culture, 10 μl of amino acids at 2% added, 28° C.; basal medium control OD600 0.5
Method: To 10 μl of a spore stock of Streptomyces badius SP6C4 strain (10^5 cfu/mL), 80 μl of sterile water was added. After mixing with 10 μl of amino acids at concentration of 2%, the strain was cultured in a shaking incubator at a condition of 28° C. Growth of SP6C4 strain was examined by OD600 for 5 days with an interval of 24 hours.

Fusarium oxysporum [5] = assay: Wilt disease control after coating tomato seeds with glutamic acid; type: in vivo; conditions: tomato seeds coated with 2% glutamic acid and 0.1% CMC, then pathogen; Day 3 (Early time) and Day 10 (Late time); pathogen only about 50% and 100%
Method: By using a concentrate of glutamic acid (20% (w/v)) and a concentrate of CMC (carboxyl methyl cellulose) (1% (w/v)) as a spreader, a mixture solution was prepared such that they have concentration of 2% and 0.1%, respectively. Forty to fifty tomato seeds of which surfaces have been sterilized with 70% (v/v) ethanol and 1% (v/v) sodium hypochlorite were added to 1 mL of the mixture solution and dried for 12 hours in a sterile bench at room temperature condition. After that, the coated seeds were planted to a square pot (3 cm×3 cm), 1 to 2 seeds per pot. Fusarium oxysporum spores as wilt pathogen were added in an amount of 3 mL with concentration of 10^5×1.0 CFU/mL. The treatment group obtained after completing pathogen inoculation to the seeds was transferred to a plant growth chamber which is set at 28° C. for 16 hours of light period and 25° C. for 8 hours of dark period. On Day 3 (Early time) and Day 10 (Late time) after transfer to a plant growth chamber, the incidence rate of wilt disease was examined. As a control, a non-treatment group and a group treated only with the pathogen were examined, each repeated 10 times.

Compound | color change with Redox dye (stronger purple color corresponds to higher growth of the microorganism) [1] | incidence rate of gray mold (gray mold) | incidence rate of gray mold (in words) (gray mold) | also measured
N=C(N)NCCC[C@H](N)C(=O)O [arginine] | darkest purple color |  |  | 
NC(=O)C[C@H](N)C(=O)O [asparagine, reference compound] |  | about 25% |  | incidence rate of bloom blight (bloom blight): up to 40%
N[C@@H](Cc1c[nH]c2ccccc12)C(=O)O [tryptophan] |  |  | incidence rate has decreased | 
O=C(O)[C@@H]1CCCN1 [proline] |  |  | incidence rate has decreased | 
N[C@@H](CCC(=O)O)C(=O)O [glutamic acid] | darkest purple color | less than 15% |  | microorganism concentration (SP6C4 on strawberry flowers) [2]: ≥ 10^5 cfu/mL; incidence rate of disease (wilt) (Fusarium oxysporum [3]; for 2 weeks after the initial pathogen treatment): no significant difference; incidence rate of disease (wilt) (Fusarium oxysporum [3]; from the week 4, pathogen only 100%): less than 15%; OD600 (growth of SP6C4 strain) [4]: 1.8; incidence rate of wilt disease (Fusarium oxysporum [5]): wilt disease does not occur
C[C@H](N)C(=O)O [alanine] | darkest purple color |  |  | 
